From the RepoRT retention time repository (doi:10.1016/j.jchromb.2020.122105)

What was measured:
Conditions in all cases: stereoisomer not certain
[1] = RP, Waters CORTECS T3, 100 × 2.1 mm, 2.7 µm, 0.3 mL/min, estimated dead time 0.73 min; A: water + 0.1% formic acid, pH 3; B: methanol + 0.1% formic acid, pH 3; gradient (min/%B) 0/0 5/0 25/100 30/100 30.1/0 35/0
[2] = RP, Waters CORTECS T3, 100 × 2.1 mm, 2.7 µm, 0.2 mL/min, estimated dead time 1.1 min; A: water + 0.1% formic acid, pH 3; B: methanol + 0.1% formic acid, pH 3; gradient (min/%B) 0/0 1/0 6/5 30/100 35/100 35.1/0 40/0
[3] = RP, Waters CORTECS T3, 100 × 2.1 mm, 2.7 µm, 0.3 mL/min, estimated dead time 0.73 min; A: water + 0.1% formic acid, pH 3; B: methanol + 0.1% formic acid, pH 3; gradient (min/%B) 0/0 1/0 6/5 30/100 35/100 35.1/0 40/0
[4] = RP, Waters CORTECS T3, 100 × 2.1 mm, 2.7 µm, 0.2 mL/min, estimated dead time 1.1 min; A: water + 0.1% formic acid, pH 3; B: methanol + 0.1% formic acid, pH 3; gradient (min/%B) 0/5 5/5 25/95 25.1/100 35/100 35.1/5 45/5
[5] = RP, Waters CORTECS T3, 100 × 2.1 mm, 2.7 µm, 0.15 mL/min, estimated dead time 1.5 min; A: water + 0.1% formic acid, pH 3; B: methanol + 0.1% formic acid, pH 3; gradient (min/%B) 0/5 5/5 25/95 25.1/100 35/100 35.1/5 45/5
[6] = RP, Waters ACQUITY UPLC BEH C18, 100 × 2.1 mm, 1.7 µm, 0.2 mL/min, estimated dead time 1.1 min; A: water + 0.1% formic acid, pH 3; B: methanol + 0.1% formic acid, pH 3; gradient (min/%B) 0/5 5/5 25/100 30/100 30.1/5 35/5
[7] = RP, Waters CORTECS T3, 100 × 2.1 mm, 2.7 µm, 0.25 mL/min, estimated dead time 0.88 min; A: water + 0.1% formic acid, pH 3; B: methanol + 0.1% formic acid, pH 3; gradient (min/%B) 0/5 5/5 25/95 25.1/100 35/100 35.1/5 45/5
[8] = RP, Waters ACQUITY UPLC BEH C18, 100 × 2.1 mm, 1.7 µm, 0.1 mL/min, estimated dead time 2.2 min; A: water + 0.1% formic acid, pH 3; B: methanol + 0.1% formic acid, pH 3; gradient (min/%B) 0/5 5/5 25/95 25.1/100 35/100 35.1/5 45/5
[9] = RP, Waters ACQUITY UPLC BEH C18, 100 × 2.1 mm, 1.7 µm, 0.2 mL/min, estimated dead time 1.1 min; A: water + 0.025% formic acid + 20 mM ammonium acetate + 0.055% ammonium hydroxide, pH 7; B: methanol; gradient (min/%B) 0/5 5/5 25/100 30/100 30.1/5 35/5
[10] = HILIC, Merck SeQuant ZIC-HILIC, 150 × 2.1 mm, 5 µm, 0.75 mL/min, estimated dead time 0.44 min; A: water + 10 mM ammonium formate, pH 6; B: 5% water + 95% acetonitrile + 10 mM ammonium formate, pH 6; gradient (min/%B) 0/95 5/95 20/57 25/57 30/95 40/95
[11] = HILIC, Merck SeQuant ZIC-HILIC, 150 × 2.1 mm, 5 µm, 0.75 mL/min, estimated dead time 0.44 min; A: water + 0.1% acetic acid + 10 mM ammonium acetate, pH 4; B: 5% water + 95% acetonitrile + 0.1% acetic acid + 10 mM ammonium acetate, pH 4; gradient (min/%B) 0/95 5/95 20/57 25/57 30/95 40/95
[12] = HILIC, Waters XBridge BEH Amide, 100 × 2.1 mm, 2.5 µm, 0.5 mL/min, estimated dead time 0.44 min; A: water + 0.1% acetic acid + 10 mM ammonium acetate, pH 4; B: 5% water + 95% acetonitrile + 0.1% acetic acid + 10 mM ammonium acetate, pH 4; gradient (min/%B) 0/95 5/95 20/57 25/57 30/95 40/95
[13] = HILIC, Thermo Scientific Accucore HILIC, 100 × 2.1 mm, 2.6 µm, 0.5 mL/min, estimated dead time 0.44 min; A: water + 0.1% formic acid + 10 mM ammonium formate, pH 3; B: 5% water + 95% acetonitrile + 0.1% formic acid + 10 mM ammonium formate, pH 3; gradient (min/%B) 0/95 5/95 20/57 25/57 30/95 40/95
[14] = RP, Waters CORTECS T3, 100 × 2.1 mm, 2.7 µm, 0.3 mL/min, estimated dead time 0.73 min; A: water + 0.1% formic acid, pH 3; B: methanol + 0.1% formic acid, pH 3; gradient (min/%B) 0/5 5/5 25/100 30/100 30.1/5 35/5
[15] = RP, Waters CORTECS T3, 100 × 2.1 mm, 2.7 µm, 0.3 mL/min, estimated dead time 0.73 min; A: water + 0.1% formic acid, pH 3; B: methanol + 0.1% formic acid, pH 3; gradient (min/%B) 0/0 5/0 25/100 30/100 30.1/0 35/0; remark: listed apart in the source
[16] = RP, Waters CORTECS T3, 100 × 2.1 mm, 2.7 µm, 0.2 mL/min, estimated dead time 1.1 min; A: water + 0.1% formic acid, pH 3; B: methanol + 0.1% formic acid, pH 3; gradient (min/%B) 0/0 1/0 6/5 30/100 35/100 35.1/0 40/0; remark: listed apart in the source
[17] = RP, Waters CORTECS T3, 100 × 2.1 mm, 2.7 µm, 0.1 mL/min, estimated dead time 2.2 min; A: water + 0.1% formic acid, pH 3; B: methanol + 0.1% formic acid, pH 3; gradient (min/%B) 0/0 1/0 6/5 30/100 35/100 35.1/0 40/0
[18] = RP, Waters CORTECS T3, 100 × 2.1 mm, 2.7 µm, 0.15 mL/min, estimated dead time 1.5 min; A: water + 0.1% formic acid, pH 3; B: methanol + 0.1% formic acid, pH 3; gradient (min/%B) 0/0 1/0 6/5 30/100 35/100 35.1/0 40/0
[19] = RP, Waters CORTECS T3, 100 × 2.1 mm, 2.7 µm, 0.3 mL/min, estimated dead time 0.73 min; A: water + 0.1% formic acid, pH 3; B: methanol + 0.1% formic acid, pH 3; gradient (min/%B) 0/0 1/0 6/5 30/100 35/100 35.1/0 40/0; remark: listed apart in the source
[20] = RP, Waters CORTECS T3, 100 × 2.1 mm, 2.7 µm, 0.25 mL/min, estimated dead time 0.88 min; A: water + 0.1% formic acid, pH 3; B: methanol + 0.1% formic acid, pH 3; gradient (min/%B) 0/0 1/0 6/5 30/100 35/100 35.1/0 40/0
[21] = RP, Waters CORTECS T3, 100 × 2.1 mm, 2.7 µm, 0.1 mL/min, estimated dead time 2.2 min; A: water + 0.1% formic acid, pH 3; B: methanol + 0.1% formic acid, pH 3; gradient (min/%B) 0/5 5/5 25/95 25.1/100 35/100 35.1/5 45/5
[22] = RP, Waters CORTECS T3, 100 × 2.1 mm, 2.7 µm, 0.3 mL/min, estimated dead time 0.73 min; A: water + 0.1% formic acid, pH 3; B: methanol + 0.1% formic acid, pH 3; gradient (min/%B) 0/5 5/5 25/95 25.1/100 35/100 35.1/5 45/5
[23] = RP, Waters ACQUITY UPLC BEH C18, 100 × 2.1 mm, 1.7 µm, 0.1 mL/min, estimated dead time 2.2 min; A: water + 0.1% formic acid, pH 3; B: methanol + 0.1% formic acid, pH 3; gradient (min/%B) 0/5 5/5 25/100 30/100 30.1/5 35/5
[24] = RP, Waters ACQUITY UPLC BEH C18, 100 × 2.1 mm, 1.7 µm, 0.1 mL/min, estimated dead time 2.2 min; A: water + 0.1% formic acid, pH 3; B: methanol + 0.1% formic acid, pH 3; gradient (min/%B) 0/5 5/5 25/95 25.1/100 35/100 35.1/5 45/5; remark: listed apart in the source
[25] = as above; remark: listed apart in the source
[26] = RP, Waters ACQUITY UPLC BEH C18, 100 × 2.1 mm, 1.7 µm, 0.1 mL/min, estimated dead time 2.2 min; A: water + 0.045% formic acid + 0.11% ammonium hydroxide, pH 7; B: methanol; gradient (min/%B) 0/5 5/5 25/95 25.1/100 35/100 35.1/5 45/5

Row | SMILES | LC retention time [1] | LC retention time [2] | LC retention time [3] | LC retention time [4] | LC retention time [5] | LC retention time [6] | LC retention time [7] | LC retention time [8] | LC retention time [9] | LC retention time [10] | LC retention time [11] | LC retention time [12] | LC retention time [13] | LC retention time [14] | LC retention time [21] | LC retention time [22] | LC retention time [23] | LC retention time [24] | LC retention time [25] | also measured
1 | O=C(O)c1ccc2ccccc2c1[O-] [1-HYDROXY-2-NAPHTHOATE] | 19.1 min | 23.3 min | 21.7 min | 26.8 min | 21.9 min | 21.1 min | 19.9 min | 25.1 min | 14.1 min | 1.33 min | 1.27 min | 1.05 min | 0.82 min | – | – | – | – | – | – | –
2 | N[C@@H](Cc1cc(I)c(O)c(I)c1)C(=O)O [3,5-DIIODO-L-TYROSINE] | – | – | – | – | – | – | – | – | – | – | – | – | 9.05 min | 10.9 min | 15.8 min | 11.1 min | 15.8 min | 16.1 min | 16.1 min | LC retention time [15]: 12 min; LC retention time [16]: 14.1 min; LC retention time [17]: 12.5 min; LC retention time [18]: 15.4 min; LC retention time [19]: 12.6 min; LC retention time [20]: 13.3 min; LC retention time [26]: 10.8 min

Second part, led by results:

Row | LC retention time [1] | LC retention time [2] | LC retention time [3] | LC retention time [4] | LC retention time [5] | LC retention time [6] | LC retention time [7] | LC retention time [8] | LC retention time [9] | LC retention time [10] | LC retention time [11] | LC retention time [12] | LC retention time [13] | LC retention time [14] | LC retention time [21] | LC retention time [22] | LC retention time [23] | LC retention time [24] | LC retention time [25] | SMILES | also measured
3 | 13.3 min | 15.9 min | 14.2 min | 19.6 min | 15.5 min | 14.4 min | 13.2 min | 18.3 min | 6.28 min | 1.85 min | 2.27 min | 1.75 min | 0.87 min | – | – | – | – | – | – | O=C([O-])CCc1ccccc1O [3-(2-HYDROXYPHENYL)PROPANOATE] | –
4 | 4.79 min | 6.16 min | 4.57 min | 10.4 min | 4.64 min | 3.4 min | 2.84 min | 6.57 min | 3.81 min | 1.42 min | 1.41 min | 1.28 min | 1.15 min | – | – | – | – | – | – | Cc1ncc(CO)c(C(=O)O)c1O [4-PYRIDOXATE] | –
5 | 0.93 min | 1.38 min | 0.92 min | 2.72 min | 1.78 min | 1.38 min | 1.08 min | 2.7 min | 1.36 min | 12.3 min | 11.6 min | – | 8.77 min | 0.93 min | 2.66 min | 0.9 min | 2.74 min | 2.66 min | 2.72 min | O=c1[nH]c(=O)c2[nH]c(=O)[nH]c2[nH]1 [URATE] | –
